Columns and labels:
Phospho Src(Y416) = target: T1, Phospho Src(Y416) (Homo sapiens, UniProt P12931); assay: Phospho Src(Y416) Sandwich ELISA; format: cell-based; conditions: Panc1; read-out: pSrc EC50 (μM) Panc1
T1 construct: endogenous in cells; host or cells: Panc1
Experimental: E. Phospho Src(Y416) Sandwich ELISA
Phospho Src(Y416) Sandwich ELISA kit was obtained from Cell Signaling Tech.
(i) Reagent Preparation • 1. All microwell strips were brought to rt before use. • 2. 1× Wash Buffer was prepared by diluting 20× Wash Buffer (included in each PathScan® Sandwich ELISA Kit) in MilliQ® water or equivalently purified water. • 3. 1× Cell Lysis Buffer from CST #9803: 20 mM Tris (pH 7.5), 150 mM NaCl, 1 mM ethylene diamine tetraacetate (EDTA), 1 mM ethylene glycol-bis(2-aminoethyl)-N,N,N′,N′-tetraacetic acid (EGTA), 1% Triton™ X-100, 2.5 mM sodium pyrophosphate, 1 mM b-glycerophosphate, 1 mM Na3VO4, 1 μg/mL leupeptin. This buffer was stored at 4° C. for short-term use (1-2 weeks).
(ii) Preparing Cell Lysates • 1. The media was aspirated. The cells were treated by adding fresh media containing inhibitor for 1 h. The compound of Example 214 was used as reference. • 2. The cells were harvested under non-denaturing conditions by removing media and rinsing cells once with ice-cold PBS. • 3. PBS was removed, 0.5 mL ice-cold 1× Cell Lysis Buffer plus 1 mM phenylmethylsulfonylfluoride (PMSF) was added to each plate (10 cm in diameter) and the plate incubated on ice for 5 min. • 4. The cells were scraped off of the plate, transferred to an appropriate tube, and kept on ice. • 5. The lysates were sonicated on ice. • 6. Microcentrifugation was performed for 10 min at 4° C. and the supernatant transferred to a new tube. The supernatant was the cell lysate and was stored at −80° C. in single-use aliquots.
(iii) Test Procedure • 1. After the microwell strips reached rt, the required number of microwells were broken off. The microwells were placed in the strip holder. Unused microwells were resealed and stored at 4° C. immediately. • 2. 100 μL of Sample Diluent (supplied in each PathScan® Sandwich ELISA Kit, blue color) was added to a micro centrifuge tube. 100 μL of cell lysate was transferred into the tube and vortexed for a few seconds. […] Individual data sheets for each kit provided information regarding an appropriate dilution factor for lysates and kit assay results. However, dilution factors were titrated when specific cell lysates are used. • 3. 100 μL of each diluted cell lysate were added to the appropriate well. It was then sealed with tape and pressed firmly onto top of microwells. The plate was incubated for 2 h at 37° C. Alternatively, the plate was incubated overnight at 4° C., which gave the best detection of target protein. • 4. The tape was gently removed and the wells washed: • a. The plate contents were discarded into a receptacle. • b. Each well was washed 4 times with 1× Wash Buffer, 200 μL. • c. For each wash, plates were struck on fresh towels hard enough to remove the residual solution in each well, but wells were not allowed to completely dry at any time. • d. The underside of all wells was cleaned with a lint-free tissue. • 5. 100 μL of Detection Antibody (green color) was added to each well, sealed with tape and the plate incubated for 1 h at 37° C. • 6. The wash procedure was repeated as in Step 4. • 7. 100 μL of HRP-linked secondary antibody (red color) was added to each well, sealed with tape and the plate incubated plate for 30 min at 37° C. • 8. The wash procedure was repeated as in Step 4. • 9. 100 μL of TMB Substrate was added to each well, sealed with tape and the plate incubated for 10 min at 37° C. or 30 min at 25° C. • 10. 100 μL of STOP Solution was added to each well and shaken gently for a few seconds. Initial color of positive reaction was blue, which changed to yellow upon addition of STOP Solution. • 11. The results were read. • a. Visual Determination—read within 30 min after adding STOP Solution. • b. Spectrophotometric Determination—the underside of wells were wiped with a lint-free tissue and absorbance read at 450 nm within 30 min after adding STOP Solution.

recombinant human FAK1 = target: T2, recombinant human FAK1 (Homo sapiens, UniProt Q05397); assay: FAK1 HTRF assay; format: biochemical
T2 construct: fused on or other part: N-terminal 6xHis tag
Summary of the method: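 IC50 values derive from HTRF % inhibition (ratio 665/620 nm, Eu–anti-phosphotyrosine 0.1 nM, SA-APC 12 nM). The kinase step ran 45 min at room temperature, pairing 10 nM His-FAK1(692–end) from baculovirus with 0.5 μM gastrin Tyr87 biotin-peptide and a reagent at 10 μM final, pH 7.4. Compound dilutions began at 10 μM.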

AURKB (Aurora B) enzyme = target: T3, AURKB (Aurora B) enzyme (Homo sapiens, UniProt Q96GD4); assay: Aurora B HTRF assay; format: biochemical; conditions: read-out: AuroraB IC50
T3 construct: purchased Invitrogen PVR 130
Summary of the method: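 Enzyme (5 nM final) and ULight-labelled PLK Ser137 peptide (50 nM) reacted 1 h at room temperature; a 30 μM final component was also present. Detection used EDTA-containing buffer with europium anti-phospho-PLK(Ser137) antibody at 2 nM, 1 h, then time-resolved FRET readout.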

JAK2 = JAK2 (Homo sapiens, UniProt O60674); assay: JAK2 biochemical potency; conditions: read-out: JAK2 HTRF IC50
Recombinant Src enzyme = target: T4, Recombinant Src enzyme (Homo sapiens, UniProt P12931); assay: Src HTRF assay; format: biochemical
T4 construct: purchased Millipore 14-326; host or cells: Sf21 insect cells
Summary of the method: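 Run as for the FAK HTRF assay (same buffer, supplements, compound preparation and procedure), with dasatinib included. Reaction contained 0.5 μM biotin-tagged Tyk2 synthetic peptide, 5 nM Src made in Sf21 cells, and a pH7.4-buffer-prepared component at 10 μM final.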

[1] = target: T5, FAK phosphorylated at Y397 in HEK-FAK cell line overexpressing human FL FAK protein (Homo sapiens, UniProt Q05397); assay: Cell based assay, Phospho-FAK ELISA; conditions: HEK stb; read-out: pFAK EC50 (μM) HEK stb
T5 construct: expressed in transfected cells
Summary of the method: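 Stable HEK293 line overexpressing full-length human FAK, kept under 0.8 mg/mL Zeocin. In lysates, FAK Y397 autophosphorylation was measured by sandwich ELISA: total-FAK capture antibody, biotinylated pY397-specific detection antibody, streptavidin-HRP with TMB substrate.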

Chain of JAK2 (O60674 whole entry, species assumed): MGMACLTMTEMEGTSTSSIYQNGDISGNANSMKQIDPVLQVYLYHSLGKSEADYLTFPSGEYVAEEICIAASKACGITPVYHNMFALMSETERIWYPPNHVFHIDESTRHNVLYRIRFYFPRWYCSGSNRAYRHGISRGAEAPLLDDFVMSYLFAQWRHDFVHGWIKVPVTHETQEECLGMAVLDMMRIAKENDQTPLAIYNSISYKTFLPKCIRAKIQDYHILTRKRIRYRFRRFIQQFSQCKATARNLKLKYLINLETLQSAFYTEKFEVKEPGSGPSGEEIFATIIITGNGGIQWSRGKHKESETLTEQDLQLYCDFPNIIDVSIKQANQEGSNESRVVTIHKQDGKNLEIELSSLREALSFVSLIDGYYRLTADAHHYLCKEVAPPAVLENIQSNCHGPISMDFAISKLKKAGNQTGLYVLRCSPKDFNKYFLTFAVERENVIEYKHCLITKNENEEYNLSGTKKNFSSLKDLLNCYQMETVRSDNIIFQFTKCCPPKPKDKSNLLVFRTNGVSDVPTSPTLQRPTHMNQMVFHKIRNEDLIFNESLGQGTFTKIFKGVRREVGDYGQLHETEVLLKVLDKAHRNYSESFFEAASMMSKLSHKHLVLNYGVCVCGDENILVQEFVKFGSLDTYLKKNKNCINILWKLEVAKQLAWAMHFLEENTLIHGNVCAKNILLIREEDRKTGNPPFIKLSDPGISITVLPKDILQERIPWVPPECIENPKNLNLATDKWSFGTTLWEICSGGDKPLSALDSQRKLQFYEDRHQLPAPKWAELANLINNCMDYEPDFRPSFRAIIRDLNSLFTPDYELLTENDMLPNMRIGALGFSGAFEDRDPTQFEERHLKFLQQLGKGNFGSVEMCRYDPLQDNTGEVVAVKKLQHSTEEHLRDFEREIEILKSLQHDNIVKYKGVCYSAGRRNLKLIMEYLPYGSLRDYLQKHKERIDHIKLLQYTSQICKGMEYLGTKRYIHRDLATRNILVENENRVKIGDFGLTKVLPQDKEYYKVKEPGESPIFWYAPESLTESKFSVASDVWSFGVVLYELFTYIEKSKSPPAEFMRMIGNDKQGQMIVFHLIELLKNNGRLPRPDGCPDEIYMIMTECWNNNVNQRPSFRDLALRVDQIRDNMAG
T3 sequence (Q96GD4 whole entry): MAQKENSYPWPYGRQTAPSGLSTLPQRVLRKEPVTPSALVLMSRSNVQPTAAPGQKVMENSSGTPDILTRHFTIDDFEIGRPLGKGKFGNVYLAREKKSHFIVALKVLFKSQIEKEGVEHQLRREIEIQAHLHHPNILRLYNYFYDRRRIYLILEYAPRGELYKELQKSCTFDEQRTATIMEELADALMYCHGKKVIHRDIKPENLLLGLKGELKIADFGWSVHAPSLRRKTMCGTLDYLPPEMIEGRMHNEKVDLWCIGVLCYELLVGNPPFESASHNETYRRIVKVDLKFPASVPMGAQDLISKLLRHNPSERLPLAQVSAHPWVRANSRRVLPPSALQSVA
T1 sequence (P12931 whole entry): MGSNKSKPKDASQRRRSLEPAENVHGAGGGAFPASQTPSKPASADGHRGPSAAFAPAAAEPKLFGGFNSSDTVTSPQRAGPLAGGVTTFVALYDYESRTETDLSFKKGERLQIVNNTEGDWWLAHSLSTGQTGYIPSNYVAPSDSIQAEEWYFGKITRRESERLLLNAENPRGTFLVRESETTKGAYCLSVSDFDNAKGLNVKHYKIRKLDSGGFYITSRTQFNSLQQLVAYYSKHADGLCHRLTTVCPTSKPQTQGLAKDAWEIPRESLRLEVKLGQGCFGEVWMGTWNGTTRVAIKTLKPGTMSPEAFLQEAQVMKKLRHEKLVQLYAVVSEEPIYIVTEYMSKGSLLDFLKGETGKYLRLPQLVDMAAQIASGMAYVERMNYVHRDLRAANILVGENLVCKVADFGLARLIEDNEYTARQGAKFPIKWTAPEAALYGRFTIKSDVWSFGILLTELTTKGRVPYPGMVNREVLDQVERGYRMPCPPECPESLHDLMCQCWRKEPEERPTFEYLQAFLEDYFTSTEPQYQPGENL
T4 sequence (P12931 whole entry): as above
T5 sequence (Q05397 whole entry): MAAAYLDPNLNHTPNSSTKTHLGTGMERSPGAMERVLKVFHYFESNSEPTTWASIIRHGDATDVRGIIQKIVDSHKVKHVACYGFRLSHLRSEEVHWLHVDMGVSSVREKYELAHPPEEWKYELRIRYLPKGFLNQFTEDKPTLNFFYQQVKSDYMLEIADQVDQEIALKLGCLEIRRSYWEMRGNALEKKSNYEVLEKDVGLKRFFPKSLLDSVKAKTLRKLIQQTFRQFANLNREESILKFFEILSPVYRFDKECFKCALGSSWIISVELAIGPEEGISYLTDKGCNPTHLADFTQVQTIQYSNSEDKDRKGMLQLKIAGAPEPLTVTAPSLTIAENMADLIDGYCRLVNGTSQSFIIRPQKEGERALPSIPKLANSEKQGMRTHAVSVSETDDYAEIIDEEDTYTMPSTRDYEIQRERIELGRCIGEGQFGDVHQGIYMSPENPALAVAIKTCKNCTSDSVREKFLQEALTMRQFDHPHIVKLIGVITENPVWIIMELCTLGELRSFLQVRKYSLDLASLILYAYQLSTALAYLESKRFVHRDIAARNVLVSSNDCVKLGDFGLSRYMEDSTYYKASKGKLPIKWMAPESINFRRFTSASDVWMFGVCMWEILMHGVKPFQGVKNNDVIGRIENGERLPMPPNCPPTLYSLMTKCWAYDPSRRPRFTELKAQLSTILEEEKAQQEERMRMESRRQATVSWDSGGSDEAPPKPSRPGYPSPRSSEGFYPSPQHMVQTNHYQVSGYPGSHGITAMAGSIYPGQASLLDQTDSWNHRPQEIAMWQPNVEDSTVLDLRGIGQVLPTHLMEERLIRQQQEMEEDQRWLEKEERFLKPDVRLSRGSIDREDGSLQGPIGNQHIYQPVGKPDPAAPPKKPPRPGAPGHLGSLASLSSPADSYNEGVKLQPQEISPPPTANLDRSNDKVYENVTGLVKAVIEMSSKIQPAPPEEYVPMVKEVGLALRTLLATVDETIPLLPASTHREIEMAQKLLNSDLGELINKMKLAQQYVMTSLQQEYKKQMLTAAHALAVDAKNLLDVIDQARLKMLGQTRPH
T2 sequence (Q05397 422-680 limits assumed): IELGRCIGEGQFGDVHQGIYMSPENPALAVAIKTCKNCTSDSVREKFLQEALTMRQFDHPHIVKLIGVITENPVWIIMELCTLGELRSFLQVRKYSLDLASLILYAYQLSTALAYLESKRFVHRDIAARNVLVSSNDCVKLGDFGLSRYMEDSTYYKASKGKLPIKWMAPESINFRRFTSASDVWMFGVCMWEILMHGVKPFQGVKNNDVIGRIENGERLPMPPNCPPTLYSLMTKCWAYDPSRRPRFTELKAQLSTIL

EC50 (Phospho Src(Y416)) [µM]	IC50 (recombinant human FAK1) [nM]	IC50 (AURKB (Aurora B) enzyme) [nM]	IC50 (JAK2) [nM]	IC50 (Recombinant Src enzyme) [nM]	EC50 [1] [µM]	Structure (SMILES)
> 1	–	–	–	–	–	CN(c1ccccc1Cn1ccc2cnc(Nc3ccc4[nH]c(=O)oc4c3)nc21)S(C)(=O)=O [Example 457]
> 1	< 20	< 20	–	–	–	CC(=O)N1CCN(c2ccc(Nc3ncc4ccn(Cc5ccccc5N(C)S(C)(=O)=O)c4n3)cc2)CC1 [Example 465]
> 1	< 20	< 20	–	–	–	Cc1cn(S(=O)(=O)c2cccc3cccnc23)c2nc(Nc3ccc(N4CCC(N(C)C)CC4)cc3)ncc12 [Example 712]
> 1	< 20	< 20	–	–	–	C[C@@H]1CN(c2ccc(Nc3ncc4ccn(Cc5ccccc5N(C)S(C)(=O)=O)c4n3)cc2)CCN1C [Example 486]
> 1	< 20	–	–	–	–	O=S(=O)(c1cccc2cccnc12)n1ncc2cnc(Nc3ccc(N4CCC(O)CC4)cc3)nc21 [Example 411]
> 1	–	–	–	–	–	CC(=O)OC1CCN(c2ccc(Nc3ncc4c(n3)N(S(=O)(=O)c3cccc5cccnc35)CC4(C)C)cc2)CC1 [Example 453]
> 1	< 20	–	–	–	–	CC(=O)N1CCN(c2ccc(Nc3ncc4ccn(S(=O)(=O)c5cccc6cccnc56)c4n3)cc2)C[C@@H]1C [Example 449]
> 1	< 20	< 20	–	–	–	COC1CCN(c2ccc(Nc3ncc4ccn(S(=O)(=O)c5cccc6cccnc56)c4n3)cc2)CC1 [Example 412]
> 1	–	–	–	–	–	CN(c1ncccc1Cn1ccc2cnc(Nc3ccc(N4CCCC(O)C4)cc3)nc21)S(C)(=O)=O (stereo not shown) [Example 753]
> 1	< 20	–	–	–	–	CN(c1ccccc1Cn1ccc2cnc(Nc3ccc4c(c3)OCC(=O)N4)nc21)S(C)(=O)=O [Example 539]
> 1	< 20	–	–	–	–	CN(c1ccccc1Cn1ccc2cnc(Nc3ccc(N4CCCC(O)C4)cc3)nc21)S(C)(=O)=O (stereo not shown) [Example 750]
> 1	–	< 20	–	–	–	CN(c1ncccc1Cn1ccc2cnc(Nc3ccc(N4CCN5C(=O)CCC5C4)cc3)nc21)S(C)(=O)=O (stereo not shown) [Example 408]
> 1	< 20	–	–	–	–	C[C@H]1CN(c2ccc(Nc3ncc4c(n3)N(S(=O)(=O)c3cccc5cccnc35)CC4(C)C)cc2)CCN1 [Example 473]
> 1	< 20	–	–	–	–	COc1cc(Nc2ncc3ccn(S(=O)(=O)c4cccc5cccnc45)c3n2)ccc1N1CCOCC1 [Example 432]
> 1	< 20	–	–	–	–	CC(=O)OC1CCN(c2ccc(Nc3ncc4ccn(S(=O)(=O)c5cccc6cccnc56)c4n3)cc2)CC1 [Example 454]
> 1	< 20	< 20	–	–	–	CN(c1ccccc1Cn1ccc2cnc(Nc3ccc(N4CCC(O)CC4)cc3)nc21)S(C)(=O)=O [Example 434]
> 1	–	< 20	–	–	–	CN(c1ccccc1Cn1ccc2cnc(Nc3ccc(C4CNC(=O)CO4)cc3)nc21)S(C)(=O)=O (stereo not shown) [Example 676]
> 1	< 20	–	–	–	–	CC(=O)N1CCN(c2ccc(Nc3ncc4ccn(Cc5ccccc5N(C)S(C)(=O)=O)c4n3)cc2)C[C@H]1C [Example 458]

Further lines, the compound ahead of its results:

Structure (SMILES)	EC50 (Phospho Src(Y416)) [µM]	IC50 (recombinant human FAK1) [nM]	IC50 (AURKB (Aurora B) enzyme) [nM]	IC50 (JAK2) [nM]	IC50 (Recombinant Src enzyme) [nM]	EC50 [1] [µM]
COc1ccccc1Nc1ncc2ccn(Cc3cccnc3N(C)S(C)(=O)=O)c2n1 [Example 154]	–	–	> 1000	> 1000	> 1000	> 1
N#Cc1ccccc1S(=O)(=O)n1ccc2cnc(Nc3ccc(C4CCN(CC(N)=O)CC4)cc3)nc21 [Example 251]	> 1	–	< 20	–	–	–
O=C1CCc2cc(Nc3ncc4ccn(S(=O)(=O)c5ccccc5OC(F)F)c4n3)ccc2N1 [Example 151]	> 1	< 20	–	–	–	–
Cc1cc(Nc2cc3c(ccn3S(=O)(=O)c3cccc4cccnc34)cn2)ccc1N1CCNCC1 [Example 334]	> 1	< 20	< 20	–	–	–
COc1cc(N2CCNCC2)ccc1Nc1cc2c(cn1)cnn2S(=O)(=O)c1cccc2cccnc12 [Example 338, N-(2-methoxy-4-(piperazin-1-yl)phenyl)-1-(quinolin-8-ylsulfonyl)-1H-pyrazolo[4,3-c]pyridin-6-amine]	–	< 20	–	> 1000	> 1000	< 0.02
O=S(=O)(c1ccccc1)n1ccc2cnc(Nc3ccc(N4CCNCC4)cc3)nc21 [Example 224]	–	–	< 20	< 20	< 20	> 1
CN(C)S(=O)(=O)c1ccccc1Cn1ccc2cnc(Nc3ccc4c(c3)CCC(=O)N4)nc21 [Example 137]	> 1	< 20	< 20	–	–	–
O=C(Nc1ccc(Nc2ncc3ccn(S(=O)(=O)c4cccc5cccnc45)c3n2)cc1)C1CC1 [Example 331]	> 1	< 20	< 20	–	–	–
O=S(=O)(c1cccc2cccnc12)n1ccc2cnc(Nc3ccc(N4CCNCC4)cc3OC3CCC3)nc21 [Example 358]	–	> 1000	–	> 1000	> 1000	> 1
O=C1CCc2cc(Nc3cc4c(ccn4S(=O)(=O)c4ccccc4OC(F)(F)F)cn3)ccc2N1 [Example 59]	–	–	> 1000	> 1000	> 1000	> 1
COc1ccccc1S(=O)(=O)n1ccc2cnc(Nc3ccc(N4CCN(C(=O)C5CC5)CC4)cc3)nc21 [Example 350]	> 1	< 20	–	–	–	–
NC(=O)CN1CCC(c2ccc(Nc3ncc4ccn(S(=O)(=O)c5cccc6cccnc56)c4n3)cc2)CC1 [Example 256]	> 1	< 20	< 20	–	–	–
O=S(=O)(c1ccccc1)n1ncc2cnc(Nc3ccc(N4CCNCC4)cc3)nc21 [Example 255]	< 0.02	–	–	–	–	–
Cc1cc(Nc2ncc3cnn(S(=O)(=O)c4cccc5cccnc45)c3n2)ccc1N1CCC(O)CC1 [Example 406]	> 1	< 20	–	–	–	–
O=C1CCc2cc(Nc3ncc4ccn(S(=O)(=O)c5ccccc5Cl)c4n3)ccc2N1 [Example 199]	> 1	< 20	< 20	–	–	–
